Results reported in patent publication US11643439B2, “Multi-target compound with anticoagulation and antiplatelet activity, preparation method therefor, and use thereof” (SHAANXI MICOT TECHNOLOGY LIMITED COMPANY, priority 2015, dated 2023).
Marks after values point to notes of the source that are not given here.

Tests used:
[1] = test system: blood coagulation function; assay: APTT in rats, intravenous maintenance administration; type: in vivo, rat
Procedure: (§1) 160 Rats were randomly divided into groups, 5 to 10 rats per group.
(§2) According to the body weight in kilograms of the rats, the first dose of a drug was dissolved in 2 mL of physiological saline for single bolus injection. The maintaining dose of drug was dissolved in 9 ml of physiological saline, and placed in a double-channel micro-injection pump, which was dripped off within 90 minutes at a dripping speed of 0.1 ml/min. The sham operation group was administered with the same volume of physiological saline.
(§3) The rats were fasted with free access to water overnight before the experiment.
(§4) The blood samples were taken before administration, administration for 60 minutes, and before termination of administration, respectively, to determine their activated partial thromboplastin time (APTT) and prothrombin time (PT). The blood samples were centrifuged at 3510 rpm for 8 minutes to obtain platelet poor plasma (PPP). Reagent reconstruction and preservation were performed according to the operation requirements of the kit. Immediately after each blood sample was placed into a test cup and then PT and APTT reagents were added, the test was started. After the test was completed, results were recorded.
(§5) 5.1 Determination of blood coagulation function: The blood samples were taken 0 min before administration, administration for 60 minutes, and termination of administration, respectively, and then determined using a platelet-aggregation coagulation factor analyzer for the blood coagulation functions (PT. APTT) and ACT.

[2] = test system: blood coagulation function; assay: PT in rats, intravenous maintenance administration; type: in vivo, rat
Procedure: as §1, §2, §3, §4, §5

[3] = test system: FeCl3-induced femoral artery thrombosis; assay: FeCl3-induced femoral artery thrombosis in rabbits, single intravenous administration; type: in vivo, rabbit
Procedure: (§6) 1. Grouping and administration: 48 Rabbits were randomly divided into 6 groups, 8 rabbits per group. 1) Sham operation group (NS): Intravenous injection of the same volume of physiological saline; 2) positive control bivalirudin group (6 mg/kg); 3) positive control enoxaparin group (200 U/kg); 4) Low dose group of polypeptide 2 (3.0 mg/kg); 5) Medium dose group of polypeptide 2 (6.0 mg/kg); 6) High dose group of polypeptide 2 (12.0 mg/kg). Polypeptide 2 was administered by single intravenous administration. According to the body weight in kilograms of the rabbits, the sample was dissolved in 2 mL of physiological saline for single bolus injection. The sham operation group was administered with the same volume of physiological saline.
(§7) 2.1 Surgery preparation of rabbits: Rabbit were sent to the laboratory for accommodation for one day, and then screened at first. Blood samples were taken from arteries within ears, which were subjected to blood routine analysis and APTT examinations, and the rabbits with a normal blood hemogram and APTT between 16 and 28 seconds were selected for experiments. The rabbits to be tested were fasted with free access to water in the night before the experiment. The rabbits were anesthetized with intravenous injection of 3% sodium pentobarbital solution at 1 ml/kg, fixed in the supine position, and then, the common carotid artery at one side, external jugular vein, femoral artery at one side, femoral vein, and forelimb vein at one side were isolated. The forelimb vein was subjected to intubation for administration; the left femoral vein was subjected to intubation for blood collection to determine the platelet aggregation rate: the femoral artery was used for the establishment of an arterial thrombosis model; the common carotid artery and external jugular vein were used for the establishment of an arterial and venous bypass thrombosis model.
2.3 Arterial thrombosis (AT) model: A small piece of filter paper (1 cm×1.5 cm) absorbed with 50% FeCl3 solution was applied onto the right femoral artery while administration, below which a small piece of a plastic film (2.5 cm×2.0 cm) was placed to protect surrounding tissues. After 10 minutes, the filter paper was removed, and then, the blood vessels and local tissues were rinsed with warm physiological saline, and the covered blood vessels were cut off. The thrombus which attached to the blood vessel walls was peeled off to be weighed on a tin foil for its wet weight, and then kept overnight at room temperature and weighed for its dry weight.
(§8) The femoral arteries in the […] and both sides in the rabbits were isolated and stabilized for 10 min before the administration was started. An AT model was established by covering the femoral artery with 50% FeCl3 filter paper while administration, and the filter paper was removed after covering for 15 minutes. An AVST model was established and it was taken out after […]. Observation was continued for 120 min after administration until the experiment was completed.
(§9) 3.4 Thrombus weight: After the experiment was completed, the segment of the blood vessels in which there had been thrombus formation was cut off, weighed for the wet weight, and then kept overnight at room temperature and weighed for the dry weight. The thrombosis inhibitory rate was calculated with a calculation equation as follows: […]

[4] = test system: femoral arterial and venous bypass thrombosis; assay: Femoral arterial and venous bypass thrombosis in rabbits, single intravenous administration; type: in vivo, rabbit; conditions: 15 min
Procedure: as §6, §7
2.2 Arterial and venous bypass thrombosis (AVST) model: An arterial and venous shunt consists of two casings, of which an outer casing has a length of about 8 cm and an inner diameter of 7.9 mm, the inner casing has a length of about 2.5 cm and an inner diameter of 4.8 mm. The polyethylene tube was charged with a silk thread about 8 cm long and filled with […] heparin solution, of which one end was inserted into the left femoral artery and the other end was inserted into the right femoral vein. After administration for 30 seconds, the blood flow was released, which flowed from the left artery to the polyethylene tube and returned to the right vein. After 15 minutes, the blood flow was interrupted, the silk thread was quickly removed and placed on an aluminum foil (size: 2.5 cm×2.5 cm), measured for its wet weight, and kept overnight at room temperature and weighed for its dry weight.
as §8, §9

[5] = test system: whole blood coagulation; assay: ACT in rabbits, single intravenous administration; type: in vivo, rabbit
Procedure: as §6
3.3 Determination of ACT: At 0 min before administration and at points of administration for 5 min and 15 min, the whole blood was taken, to which kaolin was added, and placed in a water bath at 37° C. to record the whole blood coagulation time.

[6] = iv 0.08 + 0.325 (mg/kg + mg/kg/h)
[7] = iv 0.17 + 0.65 (mg/kg + mg/kg/h)
[8] = iv 0.35 + 3.3 (mg/kg + mg/kg/h)
[9] = iv 0.35 + 1.3 (mg/kg + mg/kg/h)
[10] = single iv 6.0 mg/kg, Administration for 5 min
[11] = single iv 6.0 mg/kg, Administration for 15 min
[12] = single iv 6.0 mg/kg, After administration 5 min
[13] = single iv 6.0 mg/kg, After administration 15 min
[14] = single iv 6.0 mg/kg, Before administration
[15] = iv 0.041 + 0.125 (mg/kg + mg/kg/h)
[16] = iv 0.125 + 0.375 (mg/kg + mg/kg/h)
[17] = iv 0.25 + 0.75 (mg/kg + mg/kg/h)
[18] = iv 0.5 + 1.25 (mg/kg + mg/kg/h)
[19] = iv 1.5 + 3.75 (mg/kg + mg/kg/h)

Bivalirudin: Bivalirudin for Injection, Xi'an Xintong Pharmaceutical Research Co., Ltd.; positive control thrombin inhibitor
APTT Before administration [1, 6]: 25.05 ± 1.78
APTT Fold of change [1, 6]: 1.36 ± 0.50
APTT administration for 60 minutes [1, 6]: 34.18 ± 12.92
APTT Before administration [1, 7]: 25.55 ± 5.02
APTT Fold of change [1, 7]: 1.66 ± 0.60
APTT administration for 60 minutes [1, 7]: 41.46 ± 14.96
APTT Before administration [1, 8]: 23.16 ± 2.37
APTT Fold of change [1, 8]: 4.10 ± 1.86
APTT administration for 60 minutes [1, 8]: 95.86 ± 45.71
APTT Before administration ([1]; iv 0.5 + 2 (mg/kg + mg/kg/h)): 24.77 ± 7.84
APTT Fold of change ([1]; iv 0.5 + 2 (mg/kg + mg/kg/h)): 3.89 ± 1.37
APTT administration for 60 minutes ([1]; iv 0.5 + 2 (mg/kg + mg/kg/h)): 90.23 ± 21.92
PT Before administration [2, 6]: 10.42 ± 1.16
PT Fold of change [2, 6]: 1.82 ± 0.24
PT administration for 60 minutes [2, 6]: 18.95 ± 3.36
PT Before administration [2, 7]: 11.16 ± 1.28
PT Fold of change [2, 7]: 1.99 ± 0.78
PT administration for 60 minutes [2, 7]: 21.85 ± 7.38
PT Before administration [2, 9]: 11.73 ± 1.48
PT Fold of change [2, 9]: 3.54 ± 1.45
PT administration for 60 minutes [2, 9]: 42.58 ± 21.94
PT Before administration ([2]; iv 0.5 + 2 (mg/kg + mg/kg/h)): 7.87 ± 1.93
PT Fold of change ([2]; iv 0.5 + 2 (mg/kg + mg/kg/h)): 4.46 ± 1.47
PT administration for 60 minutes ([2]; iv 0.5 + 2 (mg/kg + mg/kg/h)): 39.13 ± 7.30
Thrombus dry weight ([3]; single iv 6.0 mg/kg): 1.5 ± 0.9 mg
Thrombus inhibitory rate ([3]; single iv 6.0 mg/kg): 48.20%
Thrombus dry weight ([4]; single iv 6.0 mg/kg): 20.8 ± 6.3 mg
Thrombus inhibitory rate ([4]; single iv 6.0 mg/kg): 11.86%
ACT [5, 10]: 443.8 ± 35.3 s
ACT [5, 11]: 375.0 ± 24.1*^ s
ACT fold of prolongation [5, 12]: 1.5 ± 0.3
ACT fold of prolongation [5, 13]: 1.3 ± 0.4
ACT [5, 14]: 305.6 ± 24.0 s

D-Phe Pro Arg Pro Gly Gly Gly Gly Asn Gly Asp Phe Glu Glu Ile Pro Glu Glu Tyr Leu Glu Ala Ala Ala Lys Cys Har Gly Asp Trp Pro Cys [Polypeptide 2]
APTT Before administration [1, 15]: 24.54 ± 5.09
APTT Fold of change [1, 15]: 1.65 ± 0.84
APTT administration for 60 minutes [1, 15]: 37.29 ± 10.59
APTT Before administration [1, 16]: 24.05 ± 5.44
APTT Fold of change [1, 16]: 1.94 ± 0.68
APTT administration for 60 minutes [1, 16]: 44.55 ± 12.74
APTT Before administration [1, 17]: 24.98 ± 5.11
APTT Fold of change [1, 17]: 2.22 ± 1.12
APTT administration for 60 minutes [1, 17]: 53.13 ± 22.57
APTT Before administration [1, 18]: 22.03 ± 4.70
APTT Fold of change [1, 18]: 2.49 ± 1.38
APTT administration for 60 minutes [1, 18]: 52.29 ± 25.87
APTT Before administration ([1]; iv 1 + 2.5 (mg/kg + mg/kg/h)): 23.98 ± 6.83
APTT Fold of change ([1]; iv 1 + 2.5 (mg/kg + mg/kg/h)): 5.01 ± 3.00
APTT administration for 60 minutes ([1]; iv 1 + 2.5 (mg/kg + mg/kg/h)): 108.52 ± 56.27
APTT Before administration [1, 19]: 23.94 ± 4.49
APTT Fold of change [1, 19]: 3.19 ± 2.02
APTT administration for 60 minutes [1, 19]: 74.62 ± 49.41
PT Before administration [2, 15]: 10.74 ± 3.97
PT Fold of change [2, 15]: 1.95 ± 1.27
PT administration for 60 minutes [2, 15]: 18.95 ± 8.65
PT Before administration [2, 16]: 11.21 ± 1.62
PT Fold of change [2, 16]: 1.70 ± 0.34
PT administration for 60 minutes [2, 16]: 19.00 ± 4.39
PT Before administration [2, 17]: 11.19 ± 1.06
PT Fold of change [2, 17]: 1.87 ± 0.50
PT administration for 60 minutes [2, 17]: 20.82 ± 5.66
PT Before administration [2, 18]: 10.58 ± 1.48
PT Fold of change [2, 18]: 2.53 ± 0.73
PT Before administration ([2]; iv 1 + 2.5 (mg/kg + mg/kg/h)): 10.53 ± 1.29
PT Fold of change ([2]; iv 1 + 2.5 (mg/kg + mg/kg/h)): 5.57 ± 2.74
PT administration for 60 minutes ([2]; iv 1 + 2.5 (mg/kg + mg/kg/h)): 56.65 ± 23.16
PT Before administration [2, 19]: 11.98 ± 1.02
PT Fold of change [2, 19]: 3.91 ± 1.89
PT administration for 60 minutes [2, 19]: 46.64 ± 23.46
Thrombus dry weight ([3]; single iv 3.0 mg/kg): 1.4 ± 0.5 mg
Thrombus inhibitory rate ([3]; single iv 3.0 mg/kg): 52.99%
Thrombus dry weight ([3]; single iv 6.0 mg/kg): 1.2 ± 0.7 mg
Thrombus inhibitory rate ([3]; single iv 6.0 mg/kg): 56.90%
Thrombus dry weight ([3]; single iv 12.0 mg/kg): 1.1 ± 0.9 mg
Thrombus inhibitory rate ([3]; single iv 12.0 mg/kg): 60.82%
Thrombus dry weight ([4]; single iv 3.0 mg/kg): 20.2 ± 4.3 mg
Thrombus inhibitory rate ([4]; single iv 3.0 mg/kg): 14.48%
Thrombus dry weight ([4]; single iv 6.0 mg/kg): 13.5 ± 5.3 mg
Thrombus inhibitory rate ([4]; single iv 6.0 mg/kg): 42.80%
Thrombus dry weight ([4]; single iv 12.0 mg/kg): 10.6 ± 6.8 mg
Thrombus inhibitory rate ([4]; single iv 12.0 mg/kg): 55.24%
ACT ([5]; single iv 3.0 mg/kg, Administration for 5 min): 352.5 ± 40.7^¥ s
ACT ([5]; single iv 3.0 mg/kg, Administration for 15 min): 337.5 ± 27.8*^¥ s
ACT fold of prolongation ([5]; single iv 3.0 mg/kg, After administration 5 min): 1.0 ± 0.2
ACT fold of prolongation ([5]; single iv 3.0 mg/kg, After administration 15 min): 1.0 ± 0.1
ACT ([5]; single iv 3.0 mg/kg, Before administration): 357.5 ± 27.7 s
ACT [5, 10]: 356.3 ± 35.3^¥ s
ACT [5, 11]: 324.4 ± 24.1*^¥ s
ACT fold of prolongation [5, 12]: 1.7 ± 0.7
ACT fold of prolongation [5, 13]: 1.6 ± 0.9
ACT [5, 14]: 232.5 ± 24.0 s
ACT ([5]; single iv 12.0 mg/kg, Administration for 5 min): 505.6 ± 35.3*^¥&@ s
ACT ([5]; single iv 12.0 mg/kg, Administration for 15 min): 418.1 ± 24.1*^¥ s
ACT fold of prolongation ([5]; single iv 12.0 mg/kg, After administration 5 min): 1.7 ± 0.6
ACT fold of prolongation ([5]; single iv 12.0 mg/kg, After administration 15 min): 1.4 ± 0.3
ACT ([5]; single iv 12.0 mg/kg, Before administration): 315.0 ± 24.0 s
